In patent US20230250393A1, “PRE-TREATING CARDIOMYOCYTES WITH ANTI-ARRHYTHMIC DRUGS TO REDUCE ENGRAFTMENT ARRHYTHMIA” (priority 2022, published 2023):
Read-outs that look alike come from different tables or passages of the source. Marks after values point to notes of the source that are not given here.

Legend:
[1] = test system: engraftment arrhythmia (EA); conditions: for Effect on HR (heart rate) during EA / Effect: response on EA burden / Effect on rhythm: cardioversion / restoration of sinus rhythm: acute response, infarcted pigs with hESC-CM transplant in EA, dosages and routes as in Table 1; for Effect on EA heart rate and rhythm in the screen (overall): short-term intravenous infusion or oral treatment
Text: The objective of this study was to identify a pharmacological regimen to attenuate arrhythmias following cardiac remuscularization therapy. This study was designed in two phases: the first, to observe the natural history of EA and screen various antiarrhythmic agents for efficacy, and the second, to test for efficacy (FIG. 1). All subjects were 30-40 kg castrated male Yucatan minipigs between 6-13 months of age (S&S Farms). In Phase 1, nine subjects underwent cardiac remuscularization therapy with 500×10^6 hESC-CM delivered by direct surgical transepicardial injections or later, by percutaneous transendocardial injections. The first four subjects (one non-infarcted and three infarcted) were followed to learn the natural history of EA and establish clinical endpoints and parameters for the Phase 2 drug trial. The subsequent five subjects underwent systematic dosing with antiarrhythmic agents with continuous electrocardiography (ECG) monitoring to determine effect on rhythm and rate (Table 1).
(§1) Telemetric ECG was continuously monitored in real-time from the time of myocardial infarction to detect the primary endpoint of cardiac death or unstable EA. Automated quantification of heart rate and arrhythmia burden was performed offline by a board-certified cardiologist using the ecgAUTO™ 3.3.5.10 software package (EMKA Technologies). Arrhythmia was defined as an ectopic beat (e.g. premature ventricular contraction) or rhythm (e.g. idioventricular rhythm, ventricular tachycardia). […] Heart rate and arrhythmia burden were quantified for two continuous minutes every five minutes (40% of total rhythm was counted) and presented as daily averages.
Subjects were administered multiple trials antiarrhythmics and observed for acute response by continuous ECG monitoring. Intravenous agents were delivered as a bolus dose over 2 minutes. Oral agents were administrated by direct observation in a minimum of apples, apple sauce or pumpkin puree with daily feeding and dosed daily for dose escalation. A washout period of at least three days was provided between agents. Amiodarone was administered as the last agent for testing given concern for prolonged half-life and elimination kinetics. All agents were tested in at least two subjects.
In Phase 1 of the study, the inventors screened six canonical antiarrhythmic agents broadly targeting sodium channels, potassium channels, and beta-adrenergic receptors: lidocaine (Ib, sodium channel inhibitor), flecainide (Ic, sodium channel inhibitor), propafenone (Ic, sodium channel inhibitor), amiodarone (III, potassium channel inhibitor), sotalol (III, potassium channel inhibitor) and metoprolol (β1-adrenergic receptor inhibitor) for effect on EA heart rate and rhythm. In addition, the funny current/HCN4 channel antagonist, ivabradine, was tested (Table 1). This series were not meant to be definitive but rather to rapidly identify the candidate agents.

[2] = test system: engraftment arrhythmia (EA); format: in vivo; conditions: chronic amiodarone
Method: as §1
Data are presented as mean±standard error of the mean (SEM).

[3] = Amiodarone drug monitoring by liquid chromatography-mass spectrometry; format: in vivo; conditions: trough, within 1 week of discontinuation of chronic oral amiodarone, 6 pigs, mean ± SEM
Method: FIG. 8 Plasma amiodarone levels in pigs. Amiodarone levels were measured in plasma by a custom liquid chromatography-mass spectrometry assay. Chronic oral amiodarone in six pigs was discontinued after achieving electrical maturation and stabilization of engraftment arrythmia. Serum through concentrations of amiodarone were assayed weekly including 3-4 weeks after discontinuation.
A novel liquid chromatography—mass spectrometry assay was established for amiodarone to monitor steady state serum levels in the porcine model and guide oral dosing to ensure efficacy and avoid dose-related toxicity. A target serum level of 1.5-4.0 μg/ml was extrapolated from prior human pharmacokinetic studies (16,17). Elimination kinetics after discontinuation of oral amiodarone therapy were also studied by obtaining weekly trough concentrations in 6 pigs (subjects 6, 7, 8, 13, 14, 16) (FIG. 8).

SMILES	Effect on HR (heart rate) during EA [1]	Burden of EA, chronic treatment (in words) [2]	Average serum amiodarone after discontinuation [3] [µg/mL]	Effect: response on EA burden [1]	Effect on EA heart rate and rhythm in the screen (overall) [1]	Effect on HR (heart rate) during EA ([1]; listed as ivabradine)	Effect on rhythm: cardioversion / restoration of sinus rhythm ([1]; listed as ivabradine)	Adverse effects observed in screening ([1]; minipig, in vivo)	Effect on rhythm: cardioversion / restoration of sinus rhythm [1]
CCCCc1oc2ccccc2c1C(=O)c1cc(I)c(OCCN(CC)CC)c(I)c1 [Amiodarone, amiodarone]	Modest HR effect	reduced the burden of EA chronically	0.42 ± 0.12						
O=C(NCC1CCCCN1)c1cc(OCC(F)(F)F)ccc1OCC(F)(F)F (stereo not shown) [Flecainide, flecainide]	No response on HR			No response	no significant effect				
COc1cc2c(cc1OC)CC(=O)N(CCCN(C)C[C@H]1Cc3cc(OC)c(OC)cc31)CC2 [Ivabradine, ivabradine]				effect (PO only)**, no		robust dose-dependent effects on heart rate	did not restore sinus rhythm	**Severe bradycardia	
CCN(CC)CC(=O)Nc1c(C)cccc1C [Lidocaine, lidocaine]	Modest HR effect				no significant effect				rare
COCCc1ccc(OCC(O)CNC(C)C)cc1 (stereo not shown) [Metoprolol, metoprolol]	Moderate HR effect (IV only),			no response on EA burden	no significant effect				
CC(C)NCC(O)c1ccc(NS(C)(=O)=O)cc1 (stereo not shown) [Sotalol, sotalol]	No response on HR			No response	no significant effect				
